Source: US10597388B2, “Pyridazinone herbicides” (FMC CORPORATION, priority 2014, dated 2020)

Experiments:
Assay in all cases: Test D controlled growth environment herbicide test, pre- and postemergence
Format in all cases: in vivo
[1] = test system: galium (catchweed bedstraw, Galium aparine)
Description: (§1) Seeds of plant species selected from bluegrass (annual bluegrass, Poa annua), blackgrass (Alopecurus myosuroides), Canada thistle (Cirsium arvense), canarygrass (Phalaris minor), chickweed (common chickweed, Stellaria media), geranium, cutleaf (cutleaf geranium, Geranium dissectum), galium (catchweed bedstraw, Galium aparine), bromegrass, downy (downy bromegrass, Bromus tectorum), field poppy (Papaver rhoeas), field violet (Viola arvensis), foxtail, green (green foxtail, Setaria viridis), deadnettle (henbit deadnettle, Lamium amplexicaule), ryegrass, Italian (Italian ryegrass, Lolium multiflorum), kochia (Kochia scoparia), lambsquarters (Chenopodium album), oilseed rape (Brassica napus), pigweed (Amaranthus retroflexus), chamomile (scentless chamomile, Matricaria inodora), Russian thistle (Salsola kali), speedwell (bird's-eye speedwell, Veronica persica), barley, spring (spring barley, Hordeum vulgare), wheat, spring (spring wheat, Triticum aestivum), buckwheat, wild (wild buckwheat, Polygonum convolvulus), mustard, wild (wild mustard, Sinapis arvensis), oat, wild (wild oat, Avena fatua), radish, wild (wild radish, Raphanus raphanistrum), windgrass (Apera spica-venti), barley, winter (winter barley, Hordeum vulgare), and wheat, winter (winter wheat, Triticum aestivum) were planted into a silt loam soil and treated preemergence with test chemicals formulated in a non-phytotoxic solvent mixture which included a surfactant.
(§2) At the same time, these species were planted in pots containing Redi-Earth® planting medium (Scotts Company, 14111 Scottslawn Road, Marysville, Ohio 43041) comprising spaghnum peat moss, vermiculite, wetting agent and starter nutrients and treated with postemergence applications of the test chemicals formulated in the same manner. Plants ranged in height from 2 to 18 cm (1- to 4-leaf stage). Treated plants and controls were maintained in a controlled growth environment for 14 to 21 d after which time all species were compared to controls and visually evaluated. Plant response ratings, summarized in Table D, are based on a scale of 0 to 100 where 0 is no effect and 100 is complete control. A dash (-) response means no test result.

[2] = test system: field poppy (Papaver rhoeas)
Description: as §1, §2

[3] = test system: speedwell (bird's-eye speedwell, Veronica persica)
Description: as §1, §2

[4] = test system: barley, winter (winter barley, Hordeum vulgare)
Description: as §1, §2

[5] = test system: wheat, winter (winter wheat, Triticum aestivum)
Description: as §1, §2

[6] = test system: windgrass (Apera spica-venti)
Description: as §1, §2

kochia (Kochia scoparia) = test system: kochia (Kochia scoparia)
Description: as §1, §2

[7] = test system: mustard, wild (wild mustard, Sinapis arvensis)
Description: as §1, §2

[8] = test system: deadnettle (henbit deadnettle, Lamium amplexicaule)
Description: as §1, §2

[9] = test system: chickweed (common chickweed, Stellaria media)
Description: as §1, §2

[10] = test system: Russian thistle (Salsola kali)
Description: as §1, §2

[11] = test system: lambsquarters (Chenopodium album)
Description: as §1, §2

[12] = test system: bromegrass, downy (downy bromegrass, Bromus tectorum)
Description: as §1, §2

[13] = Postemergence, 31 g ai/ha, scale 0 to 100 (0 no effect, 100 complete control)
[14] = Postemergence, 125 g ai/ha, visual rating on scale 0 (no effect) to 100 (complete control), 14 to 21 d
[15] = Postemergence, 250 g ai/ha, scale 0 to 100 (0 no effect, 100 complete control)
[16] = Preemergence, 125 g ai/ha, scale 0 to 100 (0 no effect, 100 complete control)
[17] = Preemergence, 250 g ai/ha, scale 0 to 100 (0 no effect, 100 complete control)
[18] = postemergence, 62 g ai/ha, scale 0 to 100, 0 no effect, 100 complete control
[19] = Preemergence, 62 g ai/ha, scale 0 to 100 (0 no effect, 100 complete control)

C#CCOC(=O)Oc1c(C)nn(C)c(=O)c1-c1c(C)sc2ccc(C)cc12 [Compound 87]
Galium plant response rating [1, 13]: 85
Plant response rating, Galium [1, 14]: 100
Plant response rating, Galium [1, 15]: 100
Plant response rating (scale of 0 to 100), Galium ([1]; Preemergence, 31 g ai/ha): 15
Plant response rating (scale of 0 to 100), Galium ([1]; Preemergence, 62 g ai/ha): 40
Plant response rating, Galium [1, 16]: 60
Plant response rating, Galium [1, 17]: 80
Plant response rating, Galium [1, 18]: 100
Field Poppy plant response rating [2, 13]: 70
Plant response rating, Field Poppy [2, 14]: 85
Plant response rating, Field Poppy [2, 15]: 100
Plant response rating (scale of 0 to 100), Field Poppy ([2]; Preemergence, 31 g ai/ha): 100
Plant response rating (scale of 0 to 100), Field Poppy ([2]; Preemergence, 62 g ai/ha): 100
Plant response rating, Field Poppy [2, 16]: 100
Plant response rating, Field Poppy [2, 17]: 100
Plant response rating, Field Poppy [2, 18]: 85
Speedwell plant response rating [3, 13]: 70
Plant response rating, Speedwell [3, 14]: 75
Plant response rating, Speedwell [3, 15]: 80
Plant response rating (scale of 0 to 100), Speedwell ([3]; Preemergence, 31 g ai/ha): 80
Plant response rating (scale of 0 to 100), Speedwell ([3]; Preemergence, 62 g ai/ha): 85
Plant response rating, Speedwell [3, 16]: 90
Plant response rating, Speedwell [3, 17]: 100
Plant response rating, Speedwell [3, 18]: 75
Barley, Winter plant response rating [4, 13]: 0
Plant response rating, Barley, Winter [4, 14]: 5
Plant response rating, Barley, Winter [4, 15]: 5
Plant response rating (scale of 0 to 100), Barley, Winter ([4]; Preemergence, 31 g ai/ha): 0
Plant response rating, Barley, Winter [4, 19]: 0
Plant response rating, Barley, Winter [4, 16]: 10
Plant response rating, Barley, Winter [4, 17]: 25
Plant response rating, Barley, Winter [4, 18]: 0
Wheat, Winter plant response rating [5, 13]: 0
Plant response rating, Wheat, Winter [5, 14]: 0
Plant response rating, Wheat, Winter [5, 15]: 5
Plant response rating (scale of 0 to 100), Wheat, Winter ([5]; Preemergence, 31 g ai/ha): 0
Plant response rating (scale of 0 to 100), Wheat, Winter ([5]; Preemergence, 62 g ai/ha): 0
Plant response rating, Wheat, Winter [5, 16]: 0
Plant response rating, Wheat, Winter [5, 17]: 15
Plant response rating, Wheat, Winter [5, 18]: 0
Windgrass plant response rating [6, 13]: 80
Plant response rating, Windgrass [6, 14]: 85
Plant response rating, Windgrass [6, 15]: 100
Plant response rating (scale of 0 to 100), Windgrass ([6]; Preemergence, 31 g ai/ha): 80
Plant response rating (scale of 0 to 100), Windgrass ([6]; Preemergence, 62 g ai/ha): 80
Plant response rating, Windgrass [6, 16]: 85
Plant response rating, Windgrass [6, 17]: 100
Plant response rating, Windgrass [6, 18]: 85
Kochia plant response rating (kochia (Kochia scoparia); [13]): 85
Plant response rating, Kochia (kochia (Kochia scoparia); [14]): 90
Plant response rating, Kochia (kochia (Kochia scoparia); [15]): 95
Plant response rating (scale of 0 to 100), Kochia (kochia (Kochia scoparia); Preemergence, 31 g ai/ha): 0
Plant response rating (scale of 0 to 100), Kochia (kochia (Kochia scoparia); Preemergence, 62 g ai/ha): 55
Plant response rating, Kochia (kochia (Kochia scoparia); [16]): 100
Plant response rating, Kochia (kochia (Kochia scoparia); [17]): 100
Plant response rating, Kochia (kochia (Kochia scoparia); [18]): 90
Mustard, Wild plant response rating [7, 13]: 10
Plant response rating, Mustard, Wild [7, 14]: 25
Plant response rating, Mustard, Wild [7, 15]: 60
Plant response rating (scale of 0 to 100), Mustard, Wild ([7]; Preemergence, 31 g ai/ha): 0
Plant response rating (scale of 0 to 100), Mustard, Wild ([7]; Preemergence, 62 g ai/ha): 0
Plant response rating, Mustard, Wild [7, 16]: 0
Plant response rating, Mustard, Wild [7, 17]: 25
Plant response rating, Mustard, Wild [7, 18]: 35
Deadnettle plant response rating [8, 13]: 10
Plant response rating, Deadnettle [8, 14]: 35
Plant response rating, Deadnettle [8, 15]: 60
Plant response rating (scale of 0 to 100), Deadnettle ([8]; Preemergence, 31 g ai/ha): 25
Plant response rating (scale of 0 to 100), Deadnettle ([8]; Preemergence, 62 g ai/ha): 35
Plant response rating, Deadnettle [8, 16]: 65
Plant response rating, Deadnettle [8, 17]: 70
Plant response rating, Deadnettle [8, 18]: 15
Chickweed plant response rating [9, 13]: 85
Plant response rating, Chickweed [9, 14]: 100
Plant response rating, Chickweed [9, 15]: 100
Plant response rating (scale of 0 to 100), Chickweed ([9]; Preemergence, 31 g ai/ha): 100
Plant response rating (scale of 0 to 100), Chickweed ([9]; Preemergence, 62 g ai/ha): 100
Plant response rating, Chickweed [9, 16]: 100
Plant response rating, Chickweed [9, 17]: 100
Plant response rating, Chickweed [9, 18]: 90
Russian Thistle plant response rating [10, 13]: 60
Plant response rating, Russian Thistle [10, 14]: 65
Plant response rating, Russian Thistle [10, 15]: 75
Plant response rating (scale of 0 to 100), Russian Thistle ([10]; Preemergence, 31 g ai/ha): 5
Plant response rating (scale of 0 to 100), Russian Thistle ([10]; Preemergence, 62 g ai/ha): 15
Plant response rating, Russian Thistle [10, 16]: 85
Plant response rating, Russian Thistle [10, 17]: 100
Plant response rating, Russian Thistle [10, 18]: 65
Lambsquarters plant response rating [11, 13]: 95
Plant response rating, Lambsquarters [11, 14]: 100
Plant response rating, Lambsquarters [11, 15]: 100
Plant response rating (scale of 0 to 100), Lambsquarters ([11]; Preemergence, 31 g ai/ha): 70
Plant response rating (scale of 0 to 100), Lambsquarters ([11]; Preemergence, 62 g ai/ha): 100
Plant response rating, Lambsquarters [11, 16]: 100
Plant response rating, Lambsquarters [11, 17]: 100
Plant response rating, Lambsquarters [11, 18]: 100
Bromegrass, Downy plant response rating [12, 13]: 45
Plant response rating, Bromegrass, Downy [12, 14]: 65
Plant response rating, Bromegrass, Downy [12, 15]: 65
Plant response rating (scale of 0 to 100), Bromegrass, Downy ([12]; Preemergence, 31 g ai/ha): 25
Plant response rating, Bromegrass, Downy [12, 19]: 65
Plant response rating, Bromegrass, Downy [12, 16]: 75
Plant response rating, Bromegrass, Downy [12, 17]: 80
Plant response rating, Bromegrass, Downy [12, 18]: 65
